Laboratory results as given in patent publication US20240367098A1, “CARBON DIOXIDE ABSORBENT, METHOD FOR RECOVERING CARBON DIOXIDE, AND APPARATUS FOR SEPARATING AND RECOVERING CARBON DIOXIDE” (MITSUBISHI GAS CHEMICAL COMPANY, INC., priority 2021, published 2024).

Columns and labels:
Type in all cases: physicochemical
[1] = Maximum carbon dioxide (CO2) release temperature of amine compound (DSC after CO2 absorption from air); conditions: amine compound stood 24 hours in air at 23° C., 50% RH; DSC 23 to 250° C., 10° C./minute, nitrogen
Method: A carbon dioxide concentration meter and a petri dish were placed inside an openable desiccator (Internal Dimension: 370 mm×260 mm×272 mm). […] An initial concentration of carbon dioxide was adjusted to about 400 ppm. Then, the amine compound was removed from the desiccator to obtain the amine compound with carbon dioxide absorbed. The DSC measurement was performed on the amine compound with carbon dioxide absorbed as follows, to measure the maximum carbon dioxide release temperature of the amine compound. First, the differential scanning calorimetry was performed on the amine compound using the differential thermogravimetric analyzer (Product Name: DTG-60 produced by Shimadzu Corporation) under the conditions of 23 to 250° C. of a measurement temperature range, 10° C./minute of the heating rate, and the nitrogen atmosphere. From the DSC curve obtained thereby, the temperature at which the endothermic amount associated with the desorption of carbon dioxide reached the maximum was calculated, and the temperature thereof was used as the maximum carbon dioxide release temperature of the amine compound.

[2] = Maximum endothermic temperature of amine compound (DSC); conditions: DSC 23 to 350° C., 10° C./minute, nitrogen; volatilization of the amine compound
Method: DSC measurements were performed on the amine compounds to measure the maximum endothermic temperature of the amine compounds as follows. First, a differential scanning calorimetry was performed on the amine compounds using a differential thermogravimetric analyzer (Product Name: DTG-60 produced by Shimadzu Corporation) under conditions of 23 to 350° C. of a measurement temperature range, 10° C./minute of a heating rate, and a nitrogen atmosphere. From the DSC curve obtained thereby, the temperature at which the endothermic amount associated with the volatilization of the amine compound reached the maximum was calculated, and the temperature thereof was used as the maximum endothermic temperature of the amine compound.

[3] = Amine value of amine compound (JIS K7237-1995 titration); conditions: 0.1 N perchloric acid-acetic acid titration
Method: The amine value was measured by the following measurement method in accordance with JIS K7237-1995. • (1) Dissolving 0.1 g of the amine compound in 20 mL of the acetic acid. • (2) Calculating the amine value by titrating the solution obtained in the above (1) with the 0.1 N perchloric acid-acetic acid solution using the automatic potentiometric titrator (AT-610 produced by Kyoto Electronics Manufacturing Co., Ltd.).

[4] = Acid dissociation constant (pKa) of amine compound (acid-base titration); conditions: 25±2° C., in purified water
Method: The acid dissociation constant of the amine compound was determined by the following method. • (1) Dissolving 0.2 g of the amine compound in 30 mL of the purified water. • (2) Calculating the acid dissociation constant (pKa) by titrating the solution obtained in the above (1) with the 0.1 N perchloric acid-acetic acid solution using the automatic potentiometric titrator (AT-610 produced by Kyoto Electronics Manufacturing Co., Ltd.).
Still, let the temperature at the time of measurement be 25±2° C.

Row | SMILES | Maximum CO2 Release Temperature [1] [°C] | Maximum Endothermic Temperature [2] [°C] | Amine Value [3] [mgKOH/g] | pKa [4]
1 | NCCCN(CCCN)CC1CCCC(CN(CCCN)CCCN)C1 (stereo not shown) [1,3-BAC-tetraAP] | 102.3 | 298.2 | 890 | 9.8
2 | NCCNCCNCCN [TETA, triethylenetetramine] | – | – | – | 10.3
3 | NCCN1CCNCC1 [AEP, 2-aminoethylpiperazine] | 81.9 | 118.4 | 1154 | 10.1
4 | NCCCNCC1CCCC(CNCCCN)C1 (stereo not shown) [1,3-BAC-BisAP] | – | – | – | 9.5
